“And” between values parts separate entries of the source, which are not always exact repeats. Equal values may be shown once. Inconclusive results and toxic doses are left out. Cut-off read from the data, not from the text of the source: active = T/C of 150% or more; inactive = T/C below 125%.
System: L1210 leukemia ip in BDF1 mice, survival T/C
Experiment: NCI In Vivo Anticancer Drug Screen. Data for tumor model L1210 Leukemia (intraperitoneal) in B6D2F1 (BDF1) mice
Conditions: endpoint: mean survival time, higher = longer survival
In short: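 Transplantable tumor model; survival measured in treated vs vehicle control mice. Value = treated/control.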

[1] = dose: 100.0 mg/kg/injection, schedule: Q04DX003 (ip), vehicle: saline with Tween-80
[2] = dose: 200.0 mg/kg/injection, schedule: Q04DX003 (ip), vehicle: saline with Tween-80
[3] = dose: 400.0 mg/kg/injection, schedule: Q04DX003 (ip), vehicle: saline with Tween-80
[4] = dose: 100.0 mg/kg/injection, schedule: Q01DX009 (ip), vehicle: Klucel (hydroxypropylcellulose) (HPC)
[5] = dose: 100.0 mg/kg/injection, schedule: Q04DX003 (ip), vehicle: Klucel (hydroxypropylcellulose) (HPC)
[6] = dose: 200.0 mg/kg/injection, schedule: Q01DX009 (ip), vehicle: Klucel (hydroxypropylcellulose) (HPC)
[7] = dose: 200.0 mg/kg/injection, schedule: Q04DX003 (ip), vehicle: Klucel (hydroxypropylcellulose) (HPC)
[8] = dose: 400.0 mg/kg/injection, schedule: Q04DX003 (ip), vehicle: Klucel (hydroxypropylcellulose) (HPC)
[9] = dose: 12.5 mg/kg/injection, schedule: Q04DX002 (ip), vehicle: saline
[10] = dose: 25.0 mg/kg/injection, schedule: Q04DX002 (ip), vehicle: saline
[11] = dose: 100.0 mg/kg/injection, schedule: Q01DX001 (ip), vehicle: saline
[12] = dose: 200.0 mg/kg/injection, schedule: Q01DX001 (ip), vehicle: saline
[13] = dose: 400.0 mg/kg/injection, schedule: Q01DX001 (ip), vehicle: saline
[14] = dose: 100.0 mg/kg/injection, schedule: Q04DX002 (ip), vehicle: saline with Tween-80
[15] = dose: 200.0 mg/kg/injection, schedule: Q04DX002 (ip), vehicle: saline with Tween-80
[16] = dose: 400.0 mg/kg/injection, schedule: Q04DX002 (ip), vehicle: saline with Tween-80
[17] = dose: 100.0 mg/kg/injection, schedule: Q01DX009 (ip), vehicle: saline with Tween-80
[18] = dose: 200.0 mg/kg/injection, schedule: Q01DX009 (ip), vehicle: saline with Tween-80
[19] = dose: 100.0 mg/kg/injection, schedule: Q01DX001 (ip), vehicle: Klucel (hydroxypropylcellulose) (HPC)
[20] = dose: 200.0 mg/kg/injection, schedule: Q01DX001 (ip), vehicle: Klucel (hydroxypropylcellulose) (HPC)
[21] = dose: 400.0 mg/kg/injection, schedule: Q01DX001 (ip), vehicle: Klucel (hydroxypropylcellulose) (HPC)
[22] = dose: 400.0 mg/kg/injection, schedule: Q01DX009 (ip), vehicle: Klucel (hydroxypropylcellulose) (HPC)

Measured: T/C

S=c1nc[nH]c2c1CP(c1ccccc1)CC2 (stereo not drawn)
inactive: [1] 110 % of control | [2] 100 % of control | [3] 101 % of control

CCCCCCCCCCCCCCCCOC(=O)CC(=O)OCCCCCCCCCCCCCCCC
inactive: dose: 100.0 mg/kg/injection, schedule: Q01DX001 (ip), vehicle: other 86 % of control | dose: 200.0 mg/kg/injection, schedule: Q01DX001 (ip), vehicle: other 100 % of control | dose: 400.0 mg/kg/injection, schedule: Q01DX001 (ip), vehicle: other 108 % of control

COc1ccc(C(=O)NC(=S)Nc2ccccc2F)cc1
inactive: [4] 93 % of control | [5] 94 % of control | [6] 90 % of control | [7] 93 % of control | [8] 94 % of control

CCN(CC)C(=S)N1C(=O)C2C3CCC(O3)C2C1=O (stereo not drawn)
inactive: dose: 6.25 mg/kg/injection, schedule: Q01DX009 (ip), vehicle: saline with Tween-80 97 % of control | dose: 6.25 mg/kg/injection, schedule: Q04DX002 (ip), vehicle: saline 107 % of control | dose: 12.5 mg/kg/injection, schedule: Q01DX009 (ip), vehicle: saline with Tween-80 101 % of control | [9] 104 % of control | dose: 25.0 mg/kg/injection, schedule: Q01DX009 (ip), vehicle: saline with Tween-80 101 % of control | [10] 100 % of control

CCCCCCOC(=O)C(C)OC(=O)OCCOCCOC(=O)OC(C)C(=O)OCCCCCC (stereo not drawn)
inactive: [11] 100 % of control | [12] 96 % of control | [13] 100 % of control

C=C1CCC2C(O)CCN2C1=O (stereo not drawn)
inactive: dose: 25.0 mg/kg/injection, schedule: Q01DX001 (ip), vehicle: saline 103 % of control | dose: 50.0 mg/kg/injection, schedule: Q01DX001 (ip), vehicle: saline 106 % of control | [11] 109 % of control | [12] 104 % of control

CN(C)C(=O)c1ccc[n+](CC(=O)Nc2ccc(Cl)cc2)c1
inactive: dose: 100.0 mg/kg/injection, schedule: Q04DX003 (ip), vehicle: saline 98 % of control

CN=C(NC)N(C)/N=C/C(C)=N/N(C)C(=NC)NC
inactive: dose: 15.0 mg/kg/injection, schedule: Q01DX Z (ip), vehicle: methylcellulose (MC) 95 % of control | dose: 30.0 mg/kg/injection, schedule: Q01DX Z (ip), vehicle: methylcellulose (MC) 101 % of control | dose: 60.0 mg/kg/injection, schedule: Q01DX Z (ip), vehicle: methylcellulose (MC) 101 % of control | dose: 60.0 mg/kg/injection, schedule: Q01DX Z (oral), vehicle: methylcellulose (MC) 104 % of control | dose: 120.0 mg/kg/injection, schedule: Q01DX Z (oral), vehicle: methylcellulose (MC) 93 % of control | dose: 240.0 mg/kg/injection, schedule: Q01DX Z (oral), vehicle: methylcellulose (MC) 91 % of control | dose: 480.0 mg/kg/injection, schedule: Q01DX Z (oral), vehicle: methylcellulose (MC) 110 % of control | dose: 720.0 mg/kg/injection, schedule: Q01DX Z (oral), vehicle: methylcellulose (MC) 108 % of control

C=CCCCCCCCCC
inactive: [14] 93 % of control | [15] 111 % of control | [16] 104 % of control

Cc1cccc(NC(=S)N(C)C)c1
inactive: [17] 99 % of control | [18] 101 % of control | dose: 400.0 mg/kg/injection, schedule: Q01DX009 (ip), vehicle: saline with Tween-80 94 % of control

O=C(COc1ccc(Cl)cc1)Nc1cc(Cl)ccc1Cl
inactive: [19] 113 % of control | [5] 88 % of control | [20] 95 % of control | [7] 88 % of control | [21] 97 % of control | [8] 90 % of control

CCOC(=O)C(/C=N/C(N)=O)=C(\C)O
inactive: [4] 105 % of control | [5] 102 % of control | [6] 95 % of control | [7] 101 % of control | [22] 106 % of control | [8] 92 % of control

Cc1cc(Cl)ccc1NC(=O)c1ccc([N+](=O)[O-])cc1
inactive: [17] 92 % of control | [1] 92 % of control | [18] 86 % of control | [2] 93 % of control | [3] 92 % of control

CC(=O)c1cccc(NC(=O)Nc2ccc(I)cc2)c1
inactive: [4] 97 % of control | [6] 96 % of control | [22] 97 % of control

Cc1ccc2c(c1)C=CC(C#N)N2C(=O)OCc1ccccc1 (stereo not drawn)
inactive: [1] 95 % of control | [2] 97 % of control | [3] 94 % of control

CCCCCCCCCCCCn1ncc2ccc([N+](=O)[O-])cc21
inactive: [13] 96 % of control

COc1ccc(CCCCI)cc1
inactive: dose: 100.0 mg/kg/injection, schedule: Q01DX001 (ip), vehicle: acetone 98 % of control | dose: 100.0 mg/kg/injection, schedule: Q04DX003 (ip), vehicle: acetone 93 % of control | dose: 200.0 mg/kg/injection, schedule: Q01DX001 (ip), vehicle: acetone 95 % of control | dose: 200.0 mg/kg/injection, schedule: Q04DX003 (ip), vehicle: acetone 94 % of control | dose: 400.0 mg/kg/injection, schedule: Q01DX001 (ip), vehicle: acetone 115 % of control | dose: 400.0 mg/kg/injection, schedule: Q04DX003 (ip), vehicle: acetone 95 % of control

CCCCOC(=O)c1ccc(OC(=O)Nc2cc(OC)ccc2OC)cc1
inactive: [1] 95 % of control | [2] 91 % of control | [3] 90 % of control

O=C1C=C(O)C(=O)C=C1O
inactive: dose: 3.0 mg/kg/injection, schedule: Q01DX009 (ip), vehicle: saline 111 % of control | dose: 5.0 mg/kg/injection, schedule: Q01DX001 (ip), vehicle: saline 103 % of control | dose: 6.0 mg/kg/injection, schedule: Q01DX009 (ip), vehicle: saline 98 % of control | dose: 10.0 mg/kg/injection, schedule: Q01DX001 (ip), vehicle: saline 101 % of control | dose: 10.0 mg/kg/injection, schedule: Q01DX009 (ip), vehicle: saline with Tween-80 100 % of control | dose: 12.0 mg/kg/injection, schedule: Q01DX009 (ip), vehicle: saline 103 % of control | [9] 105 % of control and 92 % of control | dose: 12.5 mg/kg/injection, schedule: Q04DX003 (ip), vehicle: saline 90 % of control | dose: 20.0 mg/kg/injection, schedule: Q01DX001 (ip), vehicle: saline 98 % of control | [10] 94 % of control | dose: 40.0 mg/kg/injection, schedule: Q01DX009 (ip), vehicle: saline with Tween-80 92 % of control | dose: 50.0 mg/kg/injection, schedule: Q04DX002 (ip), vehicle: saline 108 % of control

CN1C2CC(=O)CC1C1CCC2C1
inactive: dose: 15.0 mg/kg/injection, schedule: Q01DX001 (ip), vehicle: carboxymethylcellulose (CMC) 103 % of control | dose: 30.0 mg/kg/injection, schedule: Q01DX001 (ip), vehicle: carboxymethylcellulose (CMC) 101 % of control

CCC(O)(c1ccccc1)c1cnc(C)n1Cc1ccccc1 (stereo not drawn)
inactive: dose: 100.0 mg/kg/injection, schedule: Q01DX001 (ip), vehicle: saline with Tween-80 100 % of control and 108 % of control | dose: 100.0 mg/kg/injection, schedule: Q04DX002 (ip), vehicle: Klucel (hydroxypropylcellulose) (HPC) 102 % of control | [14] 93 % of control and 105 % of control | [1] 101 % of control | dose: 200.0 mg/kg/injection, schedule: Q01DX001 (ip), vehicle: saline with Tween-80 107 % of control and 91 % of control | dose: 200.0 mg/kg/injection, schedule: Q04DX002 (ip), vehicle: Klucel (hydroxypropylcellulose) (HPC) 112 % of control | [15] 88 % of control and 91 % of control | [2] 100 % of control | [16] 88 % of control and 90 % of control

CN(C)c1ccc2c(c1)N=Nc1cc(N(C)C)ccc1C2
inactive: [19] 87 % of control | [20] 91 % of control | [21] 87 % of control
